# Key:
# Streptococcus pneumoniae [1] = assay: Antibacterial activity against Streptococcus pneumoniae ATCC 49619 isolated from respiratory tract infected patients after 20 to 24 hrs by broth microdilution method; format: functional
# Streptococcus pneumoniae [2] = assay: Antibacterial activity against Streptococcus pneumoniae ATCC 49619 isolated from respiratory tract infected patients within 2 years of age after 20 to 24 hrs by broth microdilution method; format: functional
# Streptococcus pneumoniae [3] = assay: Antibacterial activity against Streptococcus pneumoniae ATCC 49619 isolated from respiratory tract infected male patients after 20 to 24 hrs by broth microdilution method; format: functional
# Streptococcus pneumoniae [4] = assay: Antibacterial activity against Streptococcus pneumoniae ATCC 49619 isolated from respiratory tract infected female patients after 20 to 24 hrs by broth microdilution method; format: functional
# Streptococcus pneumoniae [5] = assay: Antibacterial activity against Streptococcus pneumoniae ATCC 49619 isolated from respiratory tract infected patients more than 65 years of age after 20 to 24 hrs by broth microdilution method; format: functional
# Streptococcus pneumoniae [6] = assay: Antibacterial activity against Streptococcus pneumoniae ATCC 49619 isolated from respiratory tract infected inpatients after 20 to 24 hrs by broth microdilution method; format: functional
# Streptococcus pneumoniae [7] = assay: Antibacterial activity against Streptococcus pneumoniae ATCC 49619 isolated from respiratory tract infected patients with 6 to 14 years of age after 20 to 24 hrs by broth microdilution method; format: functional
# Streptococcus pneumoniae [8] = assay: Antibacterial activity against Streptococcus pneumoniae ATCC 49619 isolated from respiratory tract infected outpatients after 20 to 24 hrs by broth microdilution method; format: functional
# Streptococcus pneumoniae [9] = assay: Antibacterial activity against penicillin-susceptible Streptococcus pneumoniae ATCC 49619 isolated from respiratory tract infected patients after 20 to 24 hrs by broth microdilution method; format: functional
# Streptococcus pneumoniae [10] = assay: Antibacterial activity against Streptococcus pneumoniae ATCC 49619 isolated from respiratory tract infected patients with 15 to 64 years of age after 20 to 24 hrs by broth microdilution method; format: functional
# Moraxella catarrhalis = assay: Antibacterial activity against Moraxella catarrhalis isolated from respiratory tract infected patients after 20 to 24 hrs by broth microdilution method; format: functional
# Streptococcus pneumoniae [11] = assay: Antibacterial activity against penicillin-intermediate Streptococcus pneumoniae ATCC 49619 isolated from respiratory tract infected patients after 20 to 24 hrs by broth microdilution method; format: functional
# Streptococcus pneumoniae [12] = assay: Antibacterial activity against penicillin-resistant Streptococcus pneumoniae ATCC 49619 isolated from respiratory tract infected patients after 20 to 24 hrs by broth microdilution method; format: functional
# Streptococcus pneumoniae [13] = assay: Antibacterial activity against Streptococcus pneumoniae ATCC 49619 isolated from respiratory tract infected patients with 3 to 5 years of age after 20 to 24 hrs by broth microdilution method; format: functional
# Streptococcus pneumoniae [14] = assay: Antibacterial activity against Streptococcus pneumoniae ATCC 49619 isolated from respiratory tract infected patients assessed as resistant isolates after 20 to 24 hrs by broth microdilution method; format: functional
# Streptococcus pneumoniae [15] = assay: Antibacterial activity against Streptococcus pneumoniae ATCC 49619 isolated from respiratory tract infected patients assessed as susceptible isolates after 20 to 24 hrs by broth microdilution method; format: functional
# Haemophilus influenzae [16] = assay: Antibacterial activity against Haemophilus influenzae […] isolated from respiratory tract infected patients after 20 to 24 hrs by broth microdilution method; format: functional; conditions: ATCC 49247
# Haemophilus influenzae [17] = assay: Antibacterial activity against beta lactamase-positive Haemophilus influenzae […] isolated from respiratory tract infected patients after 20 to 24 hrs by broth microdilution method; format: functional; conditions: ATCC 49247
# Haemophilus influenzae [18] = assay: Antibacterial activity against Haemophilus influenzae […] isolated from respiratory tract infected patients assessed as susceptible isolates after 20 to 24 hrs by broth microdilution method; format: functional, ATCC 49247
# Streptococcus pneumoniae [19] = assay: Antibacterial activity against Streptococcus pneumoniae ATCC 49619 isolated from respiratory tract infected female patients assessed as resistant isolates after 20 to 24 hrs by broth microdilution method; format: functional
# Streptococcus pneumoniae [20] = assay: Antibacterial activity against penicillin-intermediate Streptococcus pneumoniae ATCC 49619 isolated from respiratory tract infected patients assessed as susceptible isolates after 20 to 24 hrs by broth microdilution method; format: functional
# Streptococcus pneumoniae [21] = assay: Antibacterial activity against penicillin-resistant Streptococcus pneumoniae ATCC 49619 isolated from respiratory tract infected patients assessed as susceptible isolates after 20 to 24 hrs by broth microdilution method; format: functional
# Streptococcus pneumoniae [22] = assay: Antibacterial activity against penicillin-susceptible Streptococcus pneumoniae ATCC 49619 isolated from respiratory tract infected patients assessed as resistant isolates after 20 to 24 hrs by broth microdilution method; format: functional
# Streptococcus pneumoniae [23] = assay: Antibacterial activity against Streptococcus pneumoniae ATCC 49619 isolated from respiratory tract infected patients with 6 to 14 years of age assessed as resistant isolates after 20 to 24 hrs by broth microdilution method; format: functional
# Streptococcus pneumoniae [24] = assay: Antibacterial activity against penicillin-susceptible Streptococcus pneumoniae ATCC 49619 isolated from respiratory tract infected patients assessed as susceptible isolates after 20 to 24 hrs by broth microdilution method; format: functional
# Haemophilus influenzae [25] = assay: Antibacterial activity against beta lactamase-negative Haemophilus influenzae […] isolated from respiratory tract infected patients assessed as susceptible isolates after 20 to 24 hrs by broth microdilution method; format: functional
# Streptococcus pneumoniae [26] = assay: Antibacterial activity against Streptococcus pneumoniae ATCC 49619 isolated from respiratory tract infected patients more than 65 years of age assessed as resistant isolates after 20 to 24 hrs by broth microdilution method; format: functional
# Haemophilus influenzae [27] = assay: Antibacterial activity against beta lactamase-negative Haemophilus influenzae […] isolated from respiratory tract infected patients after 20 to 24 hrs by broth microdilution method; format: functional; conditions: ATCC 49247
# Streptococcus pneumoniae [28] = assay: Antibacterial activity against Streptococcus pneumoniae ATCC 49619 isolated from respiratory tract infected male patients assessed as resistant isolates after 20 to 24 hrs by broth microdilution method; format: functional
# Streptococcus pneumoniae [29] = assay: Antibacterial activity against Streptococcus pneumoniae ATCC 49619 isolated from respiratory tract infected inpatients assessed as resistant isolates after 20 to 24 hrs by broth microdilution method; format: functional
# Streptococcus pneumoniae [30] = assay: Antibacterial activity against Streptococcus pneumoniae ATCC 49619 isolated from respiratory tract infected outpatients assessed as resistant isolates after 20 to 24 hrs by broth microdilution method; format: functional
# Streptococcus pneumoniae [31] = assay: Antibacterial activity against penicillin-intermediate Streptococcus pneumoniae ATCC 49619 isolated from respiratory tract infected patients assessed as resistant isolates after 20 to 24 hrs by broth microdilution method; format: functional
# Streptococcus pneumoniae [32] = assay: Antibacterial activity against Streptococcus pneumoniae ATCC 49619 isolated from respiratory tract infected patients with 3 to 5 years of age assessed as resistant isolates after 20 to 24 hrs by broth microdilution method; format: functional
# Streptococcus pneumoniae [33] = assay: Antibacterial activity against Streptococcus pneumoniae ATCC 49619 isolated from respiratory tract infected patients within 2 years of age assessed as resistant isolates after 20 to 24 hrs by broth microdilution method; format: functional
# Haemophilus influenzae [34] = assay: Antibacterial activity against beta lactamase-positive Haemophilus influenzae […] isolated from respiratory tract infected patients assessed as susceptible isolates after 20 to 24 hrs by broth microdilution method; format: functional, ATCC 49247
# Streptococcus pneumoniae [35] = assay: Antibacterial activity against penicillin-resistant Streptococcus pneumoniae ATCC 49619 isolated from respiratory tract infected patients assessed as resistant isolates after 20 to 24 hrs by broth microdilution method; format: functional
# Streptococcus pneumoniae [36] = assay: Antibacterial activity against Streptococcus pneumoniae ATCC 49619 isolated from respiratory tract infected patients with 15 to 64 years of age assessed as resistant isolates after 20 to 24 hrs by broth microdilution method; format: functional
compound,measurement,setting,value
C[C@@H](O)[C@H]1C(=O)N2C(C(=O)O)=C([C@H]3CCCO3)S[C@H]12 [FAROPENEM],MIC50,Streptococcus pneumoniae [1],0.015 µg/mL
same,MIC90,Streptococcus pneumoniae [1],0.5 µg/mL
same,MIC90,Streptococcus pneumoniae [2],1 µg/mL
same,MIC90,Streptococcus pneumoniae [3],0.5 µg/mL
same,MIC90,Streptococcus pneumoniae [4],0.5 µg/mL
same,MIC90,Streptococcus pneumoniae [5],0.5 µg/mL
same,MIC90,Streptococcus pneumoniae [6],0.5 µg/mL
same,MIC90,Streptococcus pneumoniae [7],0.5 µg/mL
same,MIC90,Streptococcus pneumoniae [8],0.5 µg/mL
same,MIC50,Streptococcus pneumoniae [9],0.008 µg/mL
same,MIC90,Streptococcus pneumoniae [9],0.015 µg/mL
same,MIC90,Streptococcus pneumoniae [10],0.5 µg/mL
same,MIC50,Moraxella catarrhalis,0.25 µg/mL
same,MIC90,Moraxella catarrhalis,0.5 µg/mL
same,MIC50,Streptococcus pneumoniae [11],0.06 µg/mL
same,MIC90,Streptococcus pneumoniae [11],0.25 µg/mL
same,MIC50,Streptococcus pneumoniae [12],1 µg/mL
same,MIC90,Streptococcus pneumoniae [12],2 µg/mL
same,MIC90,Streptococcus pneumoniae [13],1 µg/mL
C[C@H]1COc2c(N3CCN(C)CC3)c(F)cc3c(=O)c(C(=O)O)cn1c23.C[C@H]1COc2c(N3CCN(C)CC3)c(F)cc3c(=O)c(C(=O)O)cn1c23.O [LEVOFLOXACIN],MIC50,Streptococcus pneumoniae [1],1 µg/mL
same,MIC90,Streptococcus pneumoniae [1],1 µg/mL
same,Activity,Streptococcus pneumoniae [14],0.6%
same,Activity,Streptococcus pneumoniae [15],99.2%
same,MIC50,Haemophilus influenzae [16],≤ 0.06 µg/mL
same,MIC90,Haemophilus influenzae [16],≤ 0.06 µg/mL
same,MIC90,Streptococcus pneumoniae [2],1 µg/mL
same,MIC50,Haemophilus influenzae [17],≤ 0.06 µg/mL
same,MIC90,Haemophilus influenzae [17],≤ 0.06 µg/mL
same,MIC90,Streptococcus pneumoniae [3],1 µg/mL
same,MIC90,Streptococcus pneumoniae [4],1 µg/mL
same,MIC90,Streptococcus pneumoniae [5],1 µg/mL
same,Activity,Haemophilus influenzae [18],99.9%
same,MIC90,Streptococcus pneumoniae [6],1 µg/mL
same,Activity,Streptococcus pneumoniae [19],0.3%
same,Activity,Streptococcus pneumoniae [20],98.8%
same,MIC90,Streptococcus pneumoniae [7],1 µg/mL
same,Activity,Streptococcus pneumoniae [21],98%
same,MIC90,Streptococcus pneumoniae [8],1 µg/mL
same,MIC50,Streptococcus pneumoniae [9],1 µg/mL
same,MIC90,Streptococcus pneumoniae [9],1 µg/mL
same,Activity,Streptococcus pneumoniae [22],0.2%
same,Activity,Streptococcus pneumoniae [23],0%
same,Activity,Streptococcus pneumoniae [24],99.7%
same,MIC90,Streptococcus pneumoniae [10],1 µg/mL
same,Activity,Haemophilus influenzae [25],99.7%
same,Activity,Streptococcus pneumoniae [26],1.4%
same,MIC50,Haemophilus influenzae [27],≤ 0.06 µg/mL
same,MIC90,Haemophilus influenzae [27],≤ 0.06 µg/mL
same,Activity,Streptococcus pneumoniae [28],0.8%
same,MIC50,Moraxella catarrhalis,≤ 0.06 µg/mL
same,MIC90,Moraxella catarrhalis,≤ 0.06 µg/mL
same,Activity,Streptococcus pneumoniae [29],0.1%
same,Activity,Streptococcus pneumoniae [30],0.9%
same,Activity,Streptococcus pneumoniae [31],0.9%
same,Activity,Streptococcus pneumoniae [32],0%
same,Activity,Streptococcus pneumoniae [33],0%
same,MIC50,Streptococcus pneumoniae [11],1 µg/mL
same,MIC90,Streptococcus pneumoniae [11],1 µg/mL
same,MIC50,Streptococcus pneumoniae [12],1 µg/mL
same,MIC90,Streptococcus pneumoniae [12],1 µg/mL
same,MIC90,Streptococcus pneumoniae [13],1 µg/mL
same,Activity,Haemophilus influenzae [34],100%
same,Activity,Streptococcus pneumoniae [35],1.6%
same,Activity,Streptococcus pneumoniae [36],0.4%
C[C@@H](O)[C@H]1C(=O)N2C(C(=O)O)=C(S[C@@H]3CN[C@H](C(=O)N(C)C)C3)[C@H](C)[C@H]12 [MEROPENEM],MIC50,Streptococcus pneumoniae [1],0.015 µg/mL
same,MIC90,Streptococcus pneumoniae [1],0.5 µg/mL
same,Activity,Streptococcus pneumoniae [14],9.5%
same,Activity,Streptococcus pneumoniae [15],83.2%
same,MIC50,Haemophilus influenzae [16],0.03 µg/mL
same,MIC90,Haemophilus influenzae [16],0.12 µg/mL
same,MIC50,Haemophilus influenzae [17],0.03 µg/mL
same,MIC90,Haemophilus influenzae [17],0.06 µg/mL
same,Activity,Haemophilus influenzae [18],99.7%
same,Activity,Streptococcus pneumoniae [20],93.2%
same,Activity,Streptococcus pneumoniae [21],4.5%
same,MIC50,Streptococcus pneumoniae [9],0.015 µg/mL
same,MIC90,Streptococcus pneumoniae [9],0.015 µg/mL
same,Activity,Streptococcus pneumoniae [22],0%
same,Activity,Streptococcus pneumoniae [24],100%
same,Activity,Haemophilus influenzae [25],99.6%
same,MIC50,Haemophilus influenzae [27],0.06 µg/mL
same,MIC90,Haemophilus influenzae [27],0.12 µg/mL
same,MIC50,Moraxella catarrhalis,≤ 0.004 µg/mL
same,MIC90,Moraxella catarrhalis,0.008 µg/mL
same,Activity,Streptococcus pneumoniae [31],0%
same,MIC50,Streptococcus pneumoniae [11],0.06 µg/mL
same,MIC90,Streptococcus pneumoniae [11],0.25 µg/mL
same,MIC50,Streptococcus pneumoniae [12],1 µg/mL
same,MIC90,Streptococcus pneumoniae [12],1 µg/mL
same,Activity,Haemophilus influenzae [34],100%
same,Activity,Streptococcus pneumoniae [35],59.5%
